Laboratory results reported in US9938262B2, “Benzamides” (Merck Patent GmbH, priority 2011, dated 2018).

Target: T1, FSHR (Homo sapiens, UniProt P23945)
T1 construct: expressed in transfected cells; host or cells: CHO (Cho-FSHR-LUC-1-1-43)
Assay: EC50 of cyclic AMP production in CHO FSHR cells + EC20 FSH (Assay A)
Format: cell-based
Details: CHO FSHR cells + EC20 FSH; Table 2; read-out: Assay A EC50 of cyclic AMP production
Procedure, shortened: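 cAMP HTRF ratio (665/620 nm) read after 1 h, 37 °C exposure of CHO-FSHR cells to compound in presence of EC20 FSH ([…]) and IBMX 200 μM. Responses given relative to FSH standard maximum; EC50 derived.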

T1 sequence (P23945 18-695): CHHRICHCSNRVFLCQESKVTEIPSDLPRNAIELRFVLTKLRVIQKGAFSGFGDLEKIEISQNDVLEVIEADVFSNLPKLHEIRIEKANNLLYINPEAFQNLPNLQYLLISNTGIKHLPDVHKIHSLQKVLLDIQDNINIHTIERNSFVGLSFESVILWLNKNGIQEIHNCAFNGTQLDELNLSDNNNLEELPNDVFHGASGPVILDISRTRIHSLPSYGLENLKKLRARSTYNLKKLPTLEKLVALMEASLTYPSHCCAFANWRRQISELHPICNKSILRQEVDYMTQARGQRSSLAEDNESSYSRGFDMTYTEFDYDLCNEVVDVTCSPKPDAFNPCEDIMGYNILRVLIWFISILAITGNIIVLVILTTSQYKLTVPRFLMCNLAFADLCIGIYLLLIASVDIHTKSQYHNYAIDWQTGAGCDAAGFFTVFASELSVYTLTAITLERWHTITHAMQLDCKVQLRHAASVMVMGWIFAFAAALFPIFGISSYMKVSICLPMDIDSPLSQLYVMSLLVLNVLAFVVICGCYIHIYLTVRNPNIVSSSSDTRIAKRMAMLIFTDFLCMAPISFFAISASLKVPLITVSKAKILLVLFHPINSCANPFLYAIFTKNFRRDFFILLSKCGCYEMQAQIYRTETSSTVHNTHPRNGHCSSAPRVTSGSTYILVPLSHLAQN
T1 sequence (P01215 25-116 partner): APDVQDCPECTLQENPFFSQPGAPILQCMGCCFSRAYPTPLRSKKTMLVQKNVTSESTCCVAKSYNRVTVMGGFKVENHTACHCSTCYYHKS
T1 sequence (P01225 19-129 partner): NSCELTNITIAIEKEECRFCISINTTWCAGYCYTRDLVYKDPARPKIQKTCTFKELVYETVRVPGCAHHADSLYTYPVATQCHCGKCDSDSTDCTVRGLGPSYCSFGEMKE

| SMILES | EC50 [µM] |
| --- | --- |
| Cc1ccccc1N1CCN(c2ccc(C(=O)NCCCNC(=O)Nc3ccc(C(F)(F)F)cc3)cc2NC(=O)c2coc(C3CC3)n2)CC1 [Compound 428] | > 10 |
| Cc1ccccc1N1CCN(c2ccc(C(=O)NCCCN3CCCC3=O)cc2NCc2cccc3cccnc23)CC1 [Compound 429] | 0.1 to 1 |
| Cc1cnc(CCCNC(=O)c2ccc(N3CCN(c4ccccc4C)CC3)c(NC(=O)c3coc(C4CC4)n3)c2)s1 [Compound 430] | 0.1 to 1 |
| O=C(NCCCN1CCCC1=O)c1ccc(N2CCN(C(=O)C3CC3)CC2)c(NC(=O)c2coc(C3CC3)n2)c1 [Compound 431] | > 10 |
| CC(C)C(=O)N1CCN(c2ccc(C(=O)NCCCN3CCCC3=O)cc2NC(=O)c2coc(C3CC3)n2)CC1 [Compound 432] | 1 to 10 |
| CCCNC(=O)NCCCNC(=O)c1ccc(N2CCN(c3ccccc3C)CC2)c(NC(=O)c2coc(C3CC3)n2)c1 [Compound 433] | 0.1 to 1 |
| Cc1ccccc1N1CCN(c2ccc(C(=O)NCCCNC(=O)c3ccccc3)cc2NC(=O)c2coc(C3CC3)n2)CC1 [Compound 434] | 0.1 to 1 |
| Cc1ccccc1N1CCN(c2ccc(C(=O)NCCCN3CCCC3=O)cc2NC(=O)c2coc(C3CC3)n2)CC1 [Compound 436] | 0.1 to 1 |
| Cc1ccccc1N1CCN(c2ccc(C(=O)NCCc3cccc(CN(C)C)c3)cc2NC(=O)c2ccco2)CC1 [Compound 437] | 0.1 to 1 |
| Cc1noc(CCCNC(=O)c2ccc(N3CCN(c4ccccc4C)CC3)c(NC(=O)c3coc(C4CC4)n3)c2)n1 [Compound 438] | 0.1 to 1 |
| Cc1cccnc1N1CCN(c2ccc(C(=O)NCCCN3CCCC3=O)cc2NC(=O)c2coc(C3CC3)n2)CC1 [Compound 439] | < 0.1 |
| Cc1ccccc1N1CCN(c2ccc(C(=O)NCCCN3CCCC3=O)cc2NC(=O)c2ncc[nH]2)CC1 [Compound 440] | 0.1 to 1 |
| Cc1ccccc1N1CCN(c2ccc(C(=O)NCCCNC(=O)C3CCOCC3)cc2NC(=O)c2coc(C3CC3)n2)CC1 [Compound 441] | < 0.1 |
| Cc1ccccc1N1CCN(c2ccc(C(=O)NCCCNC(=O)c3ccncc3)cc2NC(=O)c2coc(C3CC3)n2)CC1 [Compound 442] | 0.1 to 1 |
| Cc1cccc(C(=O)NCCCNC(=O)c2ccc(N3CCN(c4ccccc4C)CC3)c(NC(=O)c3coc(C4CC4)n3)c2)n1 [Compound 443] | 0.1 to 1 |
| Cc1cccnc1N1CCN(c2ccc(C(=O)NCCc3c[nH]cn3)cc2NC(=O)c2coc(C3CC3)n2)CC1 [Compound 444] | 0.1 to 1 |
| CCC(=O)NCCCNC(=O)c1ccc(N2CCN(c3ccccc3C)CC2)c(NC(=O)c2coc(C3CC3)n2)c1 [Compound 445] | < 0.1 |
| Cc1ccccc1N1CCN(c2ccc(C(=O)NCCCNC(=O)C(C)C)cc2NC(=O)c2coc(C3CC3)n2)CC1 [Compound 446] | 0.1 to 1 |
| Cc1ccccc1N1CCN(c2ccc(C(=O)NCCCNC(=O)C3CC3)cc2NC(=O)c2coc(C3CC3)n2)CC1 [Compound 447] | 0.1 to 1 |
| Cc1ccccc1N1CCN(c2ccc(C(=O)NCCCNC(=O)C3CCC3)cc2NC(=O)c2coc(C3CC3)n2)CC1 [Compound 448] | 0.1 to 1 |
| Cc1ccccc1N1CCN(c2ccc(C(=O)NCCCN3CCCC3=O)cc2NC(=O)c2ccc(C3CC3)o2)CC1 [Compound 449] | 0.1 to 1 |
| Cc1ccccc1N1CCN(c2ccc(C(=O)NCCCN3CCCC3=O)cc2NC(=O)C(F)(F)F)CC1 [Compound 451] | 0.1 to 1 |
| Cc1cnccc1N1CCN(c2ccc(C(=O)NCCCN3CCCC3=O)cc2NC(=O)c2coc(C3CC3)n2)CC1 [Compound 452] | 1 to 10 |
| Cc1ccccc1N1CCN(c2ccc(C(=O)NCCC#N)cc2NC(=O)c2coc(C3CC3)n2)CC1 [Compound 453] | 0.1 to 1 |
| Cc1ccccc1N1CCN(c2ccc(C(=O)NCc3cccc(CN4CCCC4)c3)cc2NC(=O)c2ccco2)CC1 [Compound 454] | 0.1 to 1 |
| Cc1ccccc1N1CCN(c2ccc(C(=O)NCc3ccc(CN(C)C)cc3)cc2NC(=O)c2ccco2)CC1 [Compound 455] | 0.1 to 1 |
| Cc1ccccc1N1CCN(c2ccc(C(=O)NCc3ccccc3CN(C)C)cc2NC(=O)c2ccco2)CC1 [Compound 456] | 0.1 to 1 |
